Holding throughout (experiment): NCI-60 cell line screen, 48 h
Assay [1] relates to NCI-H226.
In assay [2] the test system is UACC-62.
In assay [3] the test system is SNB-75.
The test system of assay [4] is PC-3.
In assay [5] the test system is HOP-62.
Assay [6] concerns SF-295.
Assay [7] relates to NCI-H522.
For assay [8], the system named is OVCAR-3.
Assay [9] relates to HOP-92.
The test system of assay [10] is M14.
The subject of assay [11] is HL-60.
Assay [12] deals with A549.
Assay [13] deals with K562.
Assay [14] deals with RPMI-8226.
Assay [15] has as its system UACC-257.
Assay [16] concerns BT-549.
Assay [17] concerns KM12.
The test system of assay [18] is HCC 2998.
The test system of assay [19] is Malme-3M.
In assay [20] the test system is RXF 393.

Each structure is given as a SMILES string.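 Assay format: 96-well plates, 48-hour exposure. GI50 marks 50% less growth.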 Activity calls are given as the source filed them. Cut-off read from the data, not from the text of the source: active = GI50 up to about 1.1 µM and inactive = higher. Some results are limits rather than exact numbers.

For `O=c1oc2ccccc2c(O)c1C(C/C(CCN1CCCC1)=N/O)c1ccccc1` (stereo not given), the GI50 was > 100 µM (inactive) in assay [1]; > 100 µM (inactive) in assay [2]; > 91.2 µM (inactive) in assay [3]; > 100 µM (inactive) in [4]; > 100 µM (inactive) in assay [5]; > 100 µM (inactive) in [6]. Moreover, the GI50 in [7] was > 100 µM (inactive); in assay [8], > 100 µM (inactive); in assay [9] it was 56.4 µM (inactive); in [10] it was > 100 µM (inactive); in assay [11], > 31.6 µM (inactive); in [12], > 100 µM (inactive). The GI50 in assay [13] was > 31.6 µM (inactive); in [14], > 94.8 µM (inactive); in [15], > 100 µM (inactive); in assay [16], 31.7 µM (inactive); in [17] it was > 100 µM (inactive); in assay [18], > 100 µM (inactive). The GI50 in assay [19] was > 100 µM (inactive).

With `COC(=O)C(CCSC)NC(=O)CNC(=O)CSc1nnc(COc2ccc(Cl)cc2)n1-c1ccccc1` (stereo not given), the GI50 in assay [1] was 18.8 µM (inactive); in [2], 16.7 µM (inactive); in assay [20] it was 18.6 µM (inactive); in [3] it was 19.1 µM (inactive); in assay [4], 16.6 µM (inactive); in [5], 17.1 µM (inactive). Moreover, the GI50 in assay [9] is 17.6 µM (inactive); in assay [10], 19.5 µM (inactive); in assay [11], 19.3 µM (inactive); in assay [12] it was 41.3 µM (inactive); in assay [13], 26.5 µM (inactive); in assay [14] it was 22.6 µM (inactive). Moreover, the GI50 in assay [15] is 18.3 µM (inactive); in assay [16] it was 16.9 µM (inactive); in assay [17] it was 20.2 µM (inactive); in [18], 14 µM (inactive); in assay [19], 18 µM (inactive).

Take `Oc1cccc(/C=N/N=c2/[nH][nH]/c(=N/N=C/c3cccc(O)c3)c3ccccc23)c1`: the GI50 in assay [1] is 14.5 µM (inactive); in assay [2] it was 13.5 µM (inactive); in assay [20], 49.2 µM (inactive); in assay [3], 12.9 µM (inactive); in assay [4], 15.8 µM (inactive); in assay [5], 12.5 µM (inactive). Besides, the GI50 in assay [6] is 13.5 µM (inactive); in assay [7], 17.3 µM (inactive); in assay [8], 13.9 µM (inactive); in [9] it was 15.9 µM (inactive); in assay [10], 21.7 µM (inactive); in [12] it was 21.4 µM (inactive). Also, the GI50 is 18.3 µM (inactive) in assay [13]; 11.5 µM (inactive) in assay [14]; 29.9 µM (inactive) in assay [15]; 18.5 µM (inactive) in assay [16]; 25.2 µM (inactive) in [17]; 15.5 µM (inactive) in assay [19].

`c1ccc(C2OCC(OC3CCCCO3)CO2)cc1` (stereo not given): the GI50 in assay [1], in [2], in [4], in assay [5], in [6] and in [7] was > 100 µM (inactive) each time. Also, the GI50 in assay [8], in assay [9], in assay [10], in [11], in assay [12] and in assay [13] was > 100 µM (inactive) in each case. For the same compound, the GI50 in [14], in [15], in assay [16], in [18] and in assay [19] was > 100 µM (inactive) throughout.

As for `COc1cc2c(c(O)c1OC)C(=O)C1CCC(=O)N1C2c1cccc2ccccc12` (stereo not given), the GI50 was > 100 µM (inactive) in assay [1]; 58.5 µM (inactive) in assay [2]; 21.4 µM (inactive) in assay [20]; > 100 µM (inactive) in assay [3]; 25.2 µM (inactive) in assay [4]; 54.8 µM (inactive) in [5]. Besides, the GI50 in [6] is 43.2 µM (inactive); in [7] it was 23.7 µM (inactive); in assay [8] it was 30.6 µM (inactive); in assay [9], 19.3 µM (inactive); in assay [10] it was 51.4 µM (inactive); in assay [11], 20.6 µM (inactive). Besides, the GI50 in assay [12] was 28.8 µM (inactive); in assay [13], 18.9 µM (inactive); in assay [14], 20.7 µM (inactive); in assay [15] it was 30.1 µM (inactive); in [16], 45 µM (inactive); in assay [17], 42.3 µM (inactive). Also, in assay [19], the GI50 is 81.8 µM (inactive).

Turning to `COC(=O)[C@H](Cc1c[nH]c2ccccc12)NC(=O)c1ccc(CNC(=O)/C=C/c2cccc(Oc3ccccc3)c2)cc1`, the GI50 was > 100 µM (inactive) in assay [1]; 36.1 µM (inactive) in assay [2]; 7.73 µM (inactive) in [20]; 79.1 µM (inactive) in assay [3]; > 100 µM (inactive) in assay [4]; > 100 µM (inactive) in assay [5]. The GI50 in assay [6] was > 100 µM (inactive); in assay [8], > 100 µM (inactive); in assay [9], 20.2 µM (inactive); in assay [10], 23.2 µM (inactive); in assay [12] it was 92.9 µM (inactive); in [13] it was 63.5 µM (inactive). The GI50 is 62.4 µM (inactive) in assay [14]; 15.7 µM (inactive) in assay [15]; 39.9 µM (inactive) in assay [16]; > 100 µM (inactive) in assay [17]; 89.9 µM (inactive) in [18]; 22.8 µM (inactive) in [19].

Regarding `CN(C)C(=S)N/N=C\C=N/NC(=S)N(C)C`, the GI50 in assay [1] is 0.515 µM (active); in assay [2] it was 0.802 µM (active); in assay [20] it was 0.277 µM (active); in [3], 1.75 µM (inactive); in [4], 0.182 µM (active); in [5], 0.129 µM (active). In addition, the GI50 was 0.158 µM (active) in assay [6]; 0.22 µM (active) in assay [7]; 0.0295 µM (active) in assay [8]; 1.65 µM (inactive) in assay [9]; 0.139 µM (active) in assay [10]; 0.0918 µM (active) in [12]. For the same compound, the GI50 in assay [13] was 23.9 µM (inactive); in [14], 0.871 µM (active); in assay [15] it was 2.64 µM (inactive); in assay [16] it was > 100 µM (inactive); in assay [17], 0.525 µM (active); in [19], 0.182 µM (active).

As to `CCOc1cc(/C=N/c2ccc(Oc3ccc(Cl)cc3)c(Cl)c2)ccc1O`, the GI50 in [1] is 26.9 µM (inactive); in assay [2], 27.7 µM (inactive); in assay [3], 17.8 µM (inactive); in assay [4] it was 31.8 µM (inactive); in assay [5] it was 23.1 µM (inactive); in assay [6] it was 18.7 µM (inactive). For the same compound, the GI50 in assay [7] was 13.7 µM (inactive); in [8], 29.6 µM (inactive); in assay [9] it was 19.7 µM (inactive); in assay [10] it was 29.8 µM (inactive); in [11] it was 15.3 µM (inactive); in assay [12], 30.1 µM (inactive). Also, the GI50 in [14] is 29.7 µM (inactive); in assay [15], 27.1 µM (inactive); in [16], 17.8 µM (inactive); in [17], 18.2 µM (inactive); in assay [18] it was 19.3 µM (inactive); in assay [19] it was 23.3 µM (inactive).

In the case of `COc1ccc(CNc2nc(NCc3ccc(OC)cc3)nc(Nc3ccccc3)n2)cc1`, the GI50 is 64.4 µM (inactive) in assay [1]; 4.14 µM (inactive) in assay [2]; > 100 µM (inactive) in assay [20]; 4.13 µM (inactive) in [3]; 5.69 µM (inactive) in [4]; > 100 µM (inactive) in assay [5]. In addition, the GI50 in assay [6] was 2.58 µM (inactive); in assay [7], 5.73 µM (inactive); in assay [8] it was 2.62 µM (inactive); in assay [9], > 100 µM (inactive); in [10], 45.7 µM (inactive); in assay [11], 2.44 µM (inactive). Besides, the GI50 in assay [12] is 9.86 µM (inactive); in assay [13], 5 µM (inactive); in assay [14] it was 8.34 µM (inactive); in assay [15], 35.1 µM (inactive); in assay [16] it was > 100 µM (inactive); in [17], 3.37 µM (inactive). In addition, the GI50 in [19] was 6.35 µM (inactive).

`Cc1nn(C(=O)c2ccccc2O)c2c1C(c1ccccc1)SC(=N)N2` (stereo not given): the GI50 in assay [1] is 1.16 µM (inactive); in assay [2] it was 0.44 µM (active); in [20], > 10 µM (inactive); in assay [3], 0.311 µM (active); in assay [4], 4.57 µM (inactive); in assay [5], 2.64 µM (inactive). The GI50 was 3.74 µM (inactive) in [6]; 3.19 µM (inactive) in assay [7]; 1.79 µM (inactive) in assay [8]; 1.69 µM (inactive) in [10]; 1.61 µM (inactive) in assay [11]; 0.6 µM (active) in assay [12]. For the same compound, the GI50 in assay [13] is 0.413 µM (active); in [14], 2.97 µM (inactive); in assay [15] it was 2.01 µM (inactive); in [16] it was > 10 µM (inactive); in [17], 3.53 µM (inactive); in assay [18], 7.69 µM (inactive). Besides, the GI50 in assay [19] is 0.479 µM (active).

For the compound `COc1ccc(C(=O)/C=C/c2ccc(Oc3cc(C(=O)/C=C/c4ccc(O)cc4)c(O)cc3OC)cc2)c(O)c1` [RHUSCHALCONE I], the GI50 in assay [2] is 3.27 µM (inactive); in assay [20], 2.56 µM (inactive); in assay [3], 5.27 µM (inactive); in assay [4], 4.84 µM (inactive); in assay [5], 4.83 µM (inactive); in assay [6], 6.41 µM (inactive). The GI50 in [7] was 2.81 µM (inactive); in [8], 4.3 µM (inactive); in [9] it was 13.9 µM (inactive); in [10] it was 4.74 µM (inactive); in assay [11] it was 3.08 µM (inactive); in [12], 8.71 µM (inactive). Moreover, the GI50 in assay [13] was 3.66 µM (inactive); in assay [14], 1.85 µM (inactive); in assay [15], 25.5 µM (inactive); in assay [16], 10.4 µM (inactive); in assay [17], 2.65 µM (inactive); in assay [19], 17.2 µM (inactive).

The values above are taken from ChEMBL document CHEMBL1201862, “PubChem BioAssay data set” (2004).
